Legend:
Assay type in all cases: in vivo
[1] = tested on: redroot pigweed (Amaranthus retroflexus, AMARE); test: Pre-emerge test, greenhouse herbicide activity screening; settings: rating scale 0-100, 14 days after application
Summary of the method: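 Compounds in acetone were track-sprayed at 187 l/ha, 15–1000 g ai/ha, onto sandy loam pots. Pre-emerge seeds were sown one day before spraying, with surface watering afterwards. Post-emerge plants were at the 2–3 leaf stage and sprayed with 0.25% v/v non-ionic surfactant. Injury was rated 0–100 at 14 days.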

[2] = tested on: barnyardgrass (Echinochloa crus-galli, ECHCG); test: as above; settings: rating scale 0-100, 14 days after application
Summary of the method: (§1)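 Plants grown in 10 cm pots of sandy loam mix received acetone-dissolved compounds through a moving flat-fan nozzle. Doses ranged from 15 to 1000 g ai/ha. Pre-emerge pots were seeded one day earlier, post-emerge pots 8–21 days earlier. Fourteen days on, each pot was graded 0–100 for damage.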

[3] = tested on: common ragweed (Ambrosia artemisizfolia L., AMBEL); test: as above; settings: rating scale 0-100, 14 days after application
Summary of the method: as §1

[4] = tested on: green foxtail (Setaria viridis, SETVI); test: as above; settings: rating scale 0-100, 14 days after application
Summary of the method: as §1

[5] = tested on: ivyleaf morningglory (Ipomoea hederacea, IPOHE); test: as above; settings: rating scale 0-100, 14 days after application
Summary of the method: as §1

[6] = tested on: johnsongrass (Sorghum halepense, SORHA); test: as above; settings: rating scale 0-100, 14 days after application
Summary of the method: as §1

[7] = tested on: lambsquarters (Chenopodium album, CHEAL); test: as above; settings: rating scale 0-100, 14 days after application
Summary of the method: as §1

[8] = tested on: large crabgrass (Digitaria sanguinalis, DIGSA); test: as above; settings: rating scale 0-100, 14 days after application
Summary of the method: as §1

[9] = tested on: sicklepod (Cassia obtusifolia, CASOB); test: as above; settings: rating scale 0-100, 14 days after application
Summary of the method: as §1

[10] = tested on: velvetleaf (Abutilon theophrasti, ABUTH); test: as above; settings: rating scale 0-100, 14 days after application
Summary of the method: as §1

[11] = tested on: field corn (Zea mays L., var. Dekalb 535, CORN); test: Pre-emerge test, crop safety; settings: rating scale 0-100, 14 days after application
Summary of the method: (§2)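 Visual ratings on a 0-100 scale (0 no damage, 100 all plants dead) were taken at 14 days after treatment. Rates of 15-1000 g ai/ha in acetone, 187 l/ha, were sprayed onto soil one day after planting (pre-emerge) or onto 2-3 leaf plants with 0.25% v/v surfactant (post-emerge).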

[12] = tested on: upland rice (Oryza sp., var. Tebonnet, RICE); test: Pre-emerge test, crop safety; settings: rating scale 0-100, 14 days after application
Summary of the method: as §2

[13] = tested on: barnyardgrass (Echinochloa crus-galli, ECHCG); test: Post-emerge test, greenhouse herbicide activity screening; settings: rating scale 0-100 (0 no damage, 100 complete death), 14 days after application
Summary of the method: as §2

[14] = tested on: common ragweed (Ambrosia artemisizfolia L., AMBEL); test: as above; settings: rating scale 0-100 (0 no damage, 100 complete death), 14 days after application
Summary of the method: as §2

[15] = tested on: green foxtail (Setaria viridis, SETVI); test: as above; settings: rating scale 0-100 (0 no damage, 100 complete death), 14 days after application
Summary of the method: as §2

[16] = tested on: ivyleaf morningglory (Ipomoea hederacea, IPOHE); test: as above; settings: rating scale 0-100 (0 no damage, 100 complete death), 14 days after application
Summary of the method: as §2

[17] = tested on: lambsquarters (Chenopodium album, CHEAL); test: as above; settings: rating scale 0-100 (0 no damage, 100 complete death), 14 days after application
Summary of the method: as §2

[18] = tested on: large crabgrass (Digitaria sanguinalis, DIGSA); test: as above; settings: rating scale 0-100 (0 no damage, 100 complete death), 14 days after application
Summary of the method: as §2

[19] = tested on: redroot pigweed (Amaranthus retroflexus, AMARE); test: as above; settings: rating scale 0-100 (0 no damage, 100 complete death), 14 days after application
Summary of the method: as §2

[20] = tested on: sicklepod (Cassia obtusifolia, CASOB); test: as above; settings: rating scale 0-100 (0 no damage, 100 complete death), 14 days after application
Summary of the method: as §2

[21] = tested on: velvetleaf (Abutilon theophrasti, ABUTH); test: as above; settings: rating scale 0-100 (0 no damage, 100 complete death), 14 days after application
Summary of the method: as §2

[22] = tested on: field corn (Zea mays L., var. Dekalb 535, CORN); test: Post-emerge test, crop safety; settings: rating scale 0-100 (0 no damage, 100 complete death), 14 days after application
Summary of the method: (§3)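 Each test used a mechanized track sprayer delivering 187 l/ha of acetone solution at 15–1000 g ai/ha. Post-emerge foliage at 2–3 leaves was treated with added 0.25% v/v non-ionic surfactant and bottom-watered only. Injury was assessed on day 14, where 100 means total kill.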

[23] = tested on: upland rice (Oryza sp., var. Tebonnet, RICE); test: Post-emerge test, crop safety; settings: rating scale 0-100 (0 no damage, 100 complete death), 14 days after application
Summary of the method: as §3

CCCCOC(=O)C(Cl)Cc1c(OC)c(Cl)cc(F)c1-n1c(=O)cc(C(F)(F)F)n(C)c1=O (single isomer, unassigned) [14-9]
10: Post-emerge Herbicidal Activity, phytotoxicity rating AMBEL ([14]; Rate 63 g ai/ha)
70: Pre-emerge herbicidal activity, phytotoxicity rating ECHCG ([2]; 250 g ai/ha) | Post-emerge Herbicidal Activity, phytotoxicity rating AMBEL ([14]; Rate 250 g ai/ha) | Post-emerge Herbicidal Activity, phytotoxicity rating ABUTH ([21]; Rate 63 g ai/ha) | Post-emerge phytotoxicity rating CORN (crop damage) ([22]; Rate 63 g ai/ha)
75: Pre-emerge phytotoxicity rating, crop damage CORN ([11]; 250 g ai/ha) | Post-emerge Herbicidal Activity, phytotoxicity rating DIGSA ([18]; Rate 63 g ai/ha) | Post-emerge Herbicidal Activity, phytotoxicity rating DIGSA ([18]; Rate 250 g ai/ha)
5: Pre-emerge phytotoxicity rating, crop damage RICE ([12]; 250 g ai/ha) | Post-emerge phytotoxicity rating RICE (crop damage) ([23]; Rate 63 g ai/ha)
30: Pre-emerge herbicidal activity, phytotoxicity rating SORHA ([6]; 250 g ai/ha) | Post-emerge Herbicidal Activity, phytotoxicity rating SETVI ([15]; Rate 63 g ai/ha)
0: Pre-emerge herbicidal activity, phytotoxicity rating ECHCG ([2]; 63 g ai/ha) | Pre-emerge herbicidal activity, phytotoxicity rating AMBEL ([3]; 63 g ai/ha) | Pre-emerge herbicidal activity, phytotoxicity rating AMBEL ([3]; 250 g ai/ha) | Pre-emerge herbicidal activity, phytotoxicity rating SETVI ([4]; 63 g ai/ha) | Pre-emerge herbicidal activity, phytotoxicity rating IPOHE ([5]; 63 g ai/ha) | Pre-emerge herbicidal activity, phytotoxicity rating IPOHE ([5]; 250 g ai/ha) | Pre-emerge herbicidal activity, phytotoxicity rating SORHA ([6]; 63 g ai/ha) | Pre-emerge herbicidal activity, phytotoxicity rating CASOB ([9]; 63 g ai/ha) | Pre-emerge herbicidal activity, phytotoxicity rating CASOB ([9]; 250 g ai/ha) | Pre-emerge herbicidal activity, phytotoxicity rating ABUTH ([10]; 63 g ai/ha) | Pre-emerge phytotoxicity rating, crop damage CORN ([11]; 63 g ai/ha) | Pre-emerge phytotoxicity rating, crop damage RICE ([12]; 63 g ai/ha) | Post-emerge Herbicidal Activity, phytotoxicity rating IPOHE ([16]; Rate 63 g ai/ha) | Post-emerge Herbicidal Activity, phytotoxicity rating CASOB ([20]; Rate 63 g ai/ha) | Post-emerge Herbicidal Activity, phytotoxicity rating CASOB ([20]; Rate 250 g ai/ha)
99: Post-emerge Herbicidal Activity, phytotoxicity rating CHEAL ([17]; Rate 250 g ai/ha) | Post-emerge Herbicidal Activity, phytotoxicity rating AMARE ([19]; Rate 250 g ai/ha) | Post-emerge phytotoxicity rating CORN (crop damage) ([22]; Rate 250 g ai/ha)
60: Pre-emerge herbicidal activity, phytotoxicity rating CHEAL ([7]; 63 g ai/ha) | Post-emerge Herbicidal Activity, phytotoxicity rating SETVI ([15]; Rate 250 g ai/ha) | Post-emerge Herbicidal Activity, phytotoxicity rating CHEAL ([17]; Rate 63 g ai/ha)
100: Pre-emerge herbicidal activity, phytotoxicity rating AMARE ([1]; 250 g ai/ha) | Pre-emerge herbicidal activity, phytotoxicity rating DIGSA ([8]; 250 g ai/ha) | Post-emerge Herbicidal Activity, phytotoxicity rating ECHCG ([13]; Rate 250 g ai/ha) | Post-emerge Herbicidal Activity, phytotoxicity rating ABUTH ([21]; Rate 250 g ai/ha)
20: Pre-emerge herbicidal activity, phytotoxicity rating SETVI ([4]; 250 g ai/ha) | Post-emerge phytotoxicity rating RICE (crop damage) ([23]; Rate 250 g ai/ha)
90: Pre-emerge herbicidal activity, phytotoxicity rating CHEAL ([7]; 250 g ai/ha) | Pre-emerge herbicidal activity, phytotoxicity rating DIGSA ([8]; 63 g ai/ha) | Pre-emerge herbicidal activity, phytotoxicity rating ABUTH ([10]; 250 g ai/ha) | Post-emerge Herbicidal Activity, phytotoxicity rating AMARE ([19]; Rate 63 g ai/ha)
80: Pre-emerge herbicidal activity, phytotoxicity rating AMARE ([1]; 63 g ai/ha) | Post-emerge Herbicidal Activity, phytotoxicity rating IPOHE ([16]; Rate 250 g ai/ha)
98: Post-emerge Herbicidal Activity, phytotoxicity rating ECHCG ([13]; Rate 63 g ai/ha)

From patent publication US6355799B1, “Substituted benzene compounds, process for their preparation, and herbicidal and defoliant compositions containing them” (ISK Americas Incorporated, priority 1997, dated 2002)
